For nine molecules, IC50, inhibition and Papp results are on record in ChEMBL document CHEMBL5344402, “A multi-target directed ligands strategy for the treatment of Alzheimer's disease: Dimethyl fumarate plus Tranilast modified Dithiocarbate as AChE inhibitor and Nrf2 activator” (Eur J Med Chem, 2022).

pIC50: −log10 of the molar value.

The term pIC50 denotes the negative decadic logarithm of the IC50, by convention in mol/L. In general, inhibition refers to the change of the read-out against control, counted positive when it falls. Low values mean a weak effect, high ones a strong effect. The Papp is the rate of passage across a membrane or cell layer, normalised by area and donor concentration. Lower therefore signals slow passage.

The target in data set [1] is Acetylcholinesterase (Electrophorus electricus, UniProt O42275). In words: Inhibition of electric eel AChE using acetylthiocholine iodide as substrate preincubated for 5 mins followed by substrate addition by DTNB reagent based Ellman's method. (In general: Ellman's reagent forms a yellow product with free thiols.)
Acetylcholinesterase (Electrophorus electricus, UniProt O42275), sequence (O42275 whole entry): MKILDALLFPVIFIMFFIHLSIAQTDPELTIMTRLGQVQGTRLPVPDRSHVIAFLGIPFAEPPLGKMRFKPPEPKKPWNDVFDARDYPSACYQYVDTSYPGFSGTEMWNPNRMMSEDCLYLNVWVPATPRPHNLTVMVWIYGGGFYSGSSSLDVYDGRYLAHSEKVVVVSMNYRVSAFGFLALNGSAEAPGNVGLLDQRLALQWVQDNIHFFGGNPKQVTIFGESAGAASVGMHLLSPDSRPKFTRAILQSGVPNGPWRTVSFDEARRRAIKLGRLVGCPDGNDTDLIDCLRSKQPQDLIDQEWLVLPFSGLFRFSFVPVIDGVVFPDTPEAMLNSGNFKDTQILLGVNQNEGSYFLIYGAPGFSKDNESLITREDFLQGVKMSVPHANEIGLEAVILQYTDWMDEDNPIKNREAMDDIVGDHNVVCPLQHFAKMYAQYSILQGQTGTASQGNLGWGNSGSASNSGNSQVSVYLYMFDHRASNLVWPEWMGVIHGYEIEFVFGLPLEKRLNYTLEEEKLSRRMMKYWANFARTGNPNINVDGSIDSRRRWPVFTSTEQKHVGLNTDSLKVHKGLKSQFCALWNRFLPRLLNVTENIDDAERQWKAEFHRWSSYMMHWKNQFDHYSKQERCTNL
The target in data set [2] is Cholinesterase (Equus caballus) (UniProt P81908). Briefly: Inhibition of equine serum BuChE using butyrylthiocholine iodide as substrate at 10 uM preincubated for 5 mins followed by substrate addition by DTNB reagent based Ellman's method relative to control. The data set is classed as cell-free.
Cholinesterase (Equus caballus), sequence (P81908 whole entry): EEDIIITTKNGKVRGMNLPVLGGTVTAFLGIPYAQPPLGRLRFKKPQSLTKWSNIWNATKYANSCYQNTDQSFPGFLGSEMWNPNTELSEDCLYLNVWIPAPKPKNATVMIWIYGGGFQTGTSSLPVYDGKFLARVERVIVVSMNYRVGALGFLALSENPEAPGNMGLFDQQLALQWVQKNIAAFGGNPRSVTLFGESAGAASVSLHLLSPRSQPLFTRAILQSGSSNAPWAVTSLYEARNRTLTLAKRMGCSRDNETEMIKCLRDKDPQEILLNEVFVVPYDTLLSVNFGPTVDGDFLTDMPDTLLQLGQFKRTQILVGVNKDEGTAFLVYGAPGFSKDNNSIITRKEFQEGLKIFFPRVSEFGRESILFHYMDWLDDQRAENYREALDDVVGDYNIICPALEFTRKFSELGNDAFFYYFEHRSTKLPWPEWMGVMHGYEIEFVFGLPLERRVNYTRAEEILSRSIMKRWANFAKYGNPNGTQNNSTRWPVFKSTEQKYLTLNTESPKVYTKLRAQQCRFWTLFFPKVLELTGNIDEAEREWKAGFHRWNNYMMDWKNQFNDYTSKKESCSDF
Data set [3] can be described thus: in vitro. Particulars: PAMPA. (PAMPA measures passive passage across an artificial lipid membrane.)
Data set [4] concerns the target Acetylcholinesterase (Homo sapiens, UniProt P22303). Briefly: Inhibition of human AChE using acetylthiocholine iodide as substrate preincubated for 5 mins followed by substrate addition by DTNB reagent based Ellman's method.
For data set [5], the target named is Cholinesterase (Homo sapiens) (UniProt P06276). Briefly: Inhibition of human BuChE using butyrylthiocholine iodide as substrate at 10 uM preincubated for 5 mins followed by substrate addition by DTNB reagent based Ellman's method relative to control.
Cholinesterase (Homo sapiens), sequence (P06276 whole entry): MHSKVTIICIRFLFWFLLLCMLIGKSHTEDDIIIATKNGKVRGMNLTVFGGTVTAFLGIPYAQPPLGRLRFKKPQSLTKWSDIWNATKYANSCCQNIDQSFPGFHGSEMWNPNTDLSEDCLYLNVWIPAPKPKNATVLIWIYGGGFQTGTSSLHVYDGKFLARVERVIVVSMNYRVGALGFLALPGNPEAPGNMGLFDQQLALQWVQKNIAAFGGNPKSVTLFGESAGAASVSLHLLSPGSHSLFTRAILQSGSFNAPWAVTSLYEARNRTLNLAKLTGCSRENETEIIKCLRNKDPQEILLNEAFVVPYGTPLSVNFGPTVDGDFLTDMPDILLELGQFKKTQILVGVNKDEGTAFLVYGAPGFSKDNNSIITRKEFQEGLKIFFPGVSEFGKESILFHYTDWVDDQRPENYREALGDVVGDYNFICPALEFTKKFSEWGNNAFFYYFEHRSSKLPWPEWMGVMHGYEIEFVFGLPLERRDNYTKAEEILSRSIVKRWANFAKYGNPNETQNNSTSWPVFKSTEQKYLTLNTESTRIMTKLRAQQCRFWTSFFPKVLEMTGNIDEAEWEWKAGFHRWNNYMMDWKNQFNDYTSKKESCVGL

Acetylcholinesterase (Homo sapiens, UniProt P22303), sequence (P22303 whole entry): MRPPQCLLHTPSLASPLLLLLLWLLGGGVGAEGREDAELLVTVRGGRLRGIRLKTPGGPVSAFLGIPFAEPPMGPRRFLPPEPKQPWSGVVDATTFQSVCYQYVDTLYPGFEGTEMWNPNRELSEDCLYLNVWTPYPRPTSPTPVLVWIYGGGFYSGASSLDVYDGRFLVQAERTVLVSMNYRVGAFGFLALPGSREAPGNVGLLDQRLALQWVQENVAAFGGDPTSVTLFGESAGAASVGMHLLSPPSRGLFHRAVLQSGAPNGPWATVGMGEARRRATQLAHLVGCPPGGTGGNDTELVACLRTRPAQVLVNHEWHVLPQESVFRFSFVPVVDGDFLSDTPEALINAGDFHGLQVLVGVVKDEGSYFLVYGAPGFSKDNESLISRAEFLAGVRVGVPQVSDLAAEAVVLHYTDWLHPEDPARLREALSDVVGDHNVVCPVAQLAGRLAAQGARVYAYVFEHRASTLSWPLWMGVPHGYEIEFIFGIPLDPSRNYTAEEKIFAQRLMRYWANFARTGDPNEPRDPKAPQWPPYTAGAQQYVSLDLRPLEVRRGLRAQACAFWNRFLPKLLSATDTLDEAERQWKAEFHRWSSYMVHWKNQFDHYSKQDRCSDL

On to `COC(=O)/C=C/C(=O)Nc1cccc(OCCCCSC(=S)N2CCC(O)CC2)c1`, for which, in data set [1], the negative logarithm of the IC50 (pIC50) is 4.12. Further, the inhibition in data set [2] is 10.1%.

In data set [3], `COC(=O)/C=C/C(=O)Nc1ccc(OCCCCSC(=S)N2CCCCC2C)cc1` (stereo not given) returned an apparent permeability (Papp) at 18 h of 12.7 ×10⁻⁶ cm/s. Further, the negative logarithm of the IC50 (pIC50) in data set [1] is 6.31; in data set [4] it was 6.42. For the same molecule, the inhibition was 18% in data set [2] and below 5% in data set [5].

As to `COC(=O)/C=C/C(=O)Nc1cccc(OCCCCSC(=S)N2CCOCC2)c1`, in data set [1], the negative logarithm of the IC50 (pIC50) was 4.13. This molecule also showed an inhibition in data set [2] of 6.88%.

In turn, `COC(=O)/C=C/C(=O)Nc1cccc(OCCCCCCSC(=S)N2CCCCC2)c1` gave a pIC50 in data set [1] of 4.54. Further, the inhibition in data set [2] is below 5%.

`COC(=O)/C=C/C(=O)Nc1cccc(OCCCCSC(=S)N(C)C)c1` gave a pIC50 in data set [1] of 4.25. Moreover, in data set [2], the inhibition was determined as 7.25%.

In data set [3], `CC(=O)[C@H]1CC[C@H]2[C@@H]3CCC4=CC(=O)CC[C@]4(C)[C@H]3CC[C@]12C` [PROGESTERONE] returned a Papp at 18 h of 11.2 ×10⁻⁶ cm/s.

`COC(=O)/C=C/C(=O)Nc1cccc(OCCCCSC(=S)N2CCC(C)CC2)c1` had a pIC50 in data set [1] of 4.71. The molecule further returned an inhibition in data set [2] of 8.48%.

In the case of `COC(=O)/C=C/C(=O)Nc1cccc(OCCCCSC(=S)N2C(C)CCCC2C)c1` (stereo not given), in data set [1], the negative-log IC50 (pIC50) was 4.78. The inhibition in data set [2] amounted to 7.14%.

In data set [1], `COC(=O)/C=C/C(=O)Nc1cccc(OCCCCCSC(=S)N2CCCCC2)c1` had a negative logarithm of the IC50 (pIC50) of 4.57. The molecule also yielded an inhibition in data set [2] below 5%.
